Results reported in article PMC13077603, “Fluorine‐18‐Labeled Nucleotide Analogs Targeting Ecto‐5'‐Nucleotidase (CD73) for Positron Emission Tomography Imaging of Solid Tumors” (Angewandte Chemie (International Ed. in English), 2026).
Values joined by “and” are separate entries in the source; they are usually repeats but may differ in a detail not shown here. Equal entries are not always repeated. Where two headings read alike, the source gives them in different places. Blank lines part the entries; values can stand above or below the compound they belong to.

Key:
[1] = target: T1, CD73 (cell membrane preparations of MDA-MB-231 cells) (Homo sapiens, UniProt P21589); assay: Kinetic rate index radioligand binding assay, estimation of residence time
T1 construct: endogenous in cells; host or cells: MDA-MB-231 (human triple-negative breast cancer) membrane preparation
T1 sequence (P21589 27-574): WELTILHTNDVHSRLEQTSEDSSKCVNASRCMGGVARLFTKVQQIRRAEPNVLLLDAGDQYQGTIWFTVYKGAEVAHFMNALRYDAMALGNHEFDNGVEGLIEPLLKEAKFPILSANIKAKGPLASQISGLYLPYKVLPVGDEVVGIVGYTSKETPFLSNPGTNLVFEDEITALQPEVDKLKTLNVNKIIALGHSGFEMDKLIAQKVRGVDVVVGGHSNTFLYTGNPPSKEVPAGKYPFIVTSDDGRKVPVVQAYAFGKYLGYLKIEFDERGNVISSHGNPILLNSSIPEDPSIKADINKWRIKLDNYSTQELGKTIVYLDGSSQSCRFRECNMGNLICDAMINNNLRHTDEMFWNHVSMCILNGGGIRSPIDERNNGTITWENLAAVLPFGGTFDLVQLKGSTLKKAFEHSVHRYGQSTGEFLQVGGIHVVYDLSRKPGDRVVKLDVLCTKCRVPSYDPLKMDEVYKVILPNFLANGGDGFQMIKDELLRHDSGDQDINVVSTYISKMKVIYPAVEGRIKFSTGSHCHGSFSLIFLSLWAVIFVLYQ
Description: Besides affinity, binding kinetics play a crucial role in determining in vivo tracer performance. The clinical CD73 inhibitor Quemliclustat has been reported to display a very long residence time. We therefore determined the kinetic rate index (KRI) of selected CD73 inhibitors using a radioligand binding assay. […] These comparatively long residence times indicate slow dissociation from the target, which may contribute to the sustained tumor retention of [^18F]1 observed in vivo. Another effect that might play a role is pharmacological inhibition of CD73 by the high concentration of the CD73 inhibitor used for blocking. This will lead to a strong reduction in adenosine concentrations, for example, in blood vessels and other tissues, which may change hemodynamics and drug distribution. […]
Cell membrane preparations of MDA-MB-231 cells were performed as previously described.^[9^] A dual point competition assay (at 20 min and 90 min) using [^3H]PSB-17230 was employed for the determination of kinetic rate index (KRI) in analogy to a published procedure,^[60^] determined at 25°C. The residence times were calculated by linear correlation based on a large database of previously determined KRI values and residence times of analogs.

[2] = target: T2, CD73 in human breast cancer samples (Homo sapiens, UniProt P21589); assay: Autoradiography on human breast tumor and sentinel lymph node cryosections; format: binding; details: ∼1000‐fold excess of blocker with radiotracer
T2 construct: cryosections of breast tumor samples as well as sentinel lymph node samples were investigated; from tissue; host or cells: primary breast tumors and sentinel lymph nodes of two patients, 6 µm cryosections
T2 sequence (P21589 27-574): T1 sequence (P21589 27-574)
Procedure: To test specific radiotracer binding to its target, we performed in situ autoradiography. [^18F]2 was applied onto cryosections of neighboring slides of tumor tissues from primary breast tumors from patient X (Figure 4A) and patient Y (Figure 4B), used for immunohistochemistry and AMPase activity determination. Sentinel LN from patient Y was incubated with [^18F]1 (Figure 4C).
FIGURE 4 Autoradiographic imaging of ^18F‐labeled CD73 tracer binding to tissue samples of breast tumors and sentinel lymph nodes. Primary breast tumor (A, B) and LN cryosections (C) were incubated with [^18F]2 or [^18F]1 in the absence (control) and in the presence of an unlabeled CD73 inhibitor, AMPCP (13) or JMS04‐14 (14), as indicated. The samples were processed for autoradiographic analysis, as described in the materials and methods section. The white dotted lines outline the tissue boundaries. (D). Structures of CD73 inhibitors applied as blockers in this study.
For the assessment of ^18F-labeled CD73 tracer binding to human tissues, cryosections of breast tumor samples as well as sentinel lymph node samples were investigated. Cryosections were thawed and pre-incubated for 15 min at room temperature in 2-[4-(2-hydroxyethyl)piperazin-1-yl]ethanesulfonic acid buffer (HEPES). […] Blocking compounds were prepared according to the molar activity of the radiolabeled tracers [^18F]MRS-4648 and [^18F]PSB-19427 aiming at a 1000-fold excess of the blocking agent. For each tissue sample, neighboring sections were incubated for 20 min at room temperature with a mixture of 50µL of the radiotracer and 50µL of the classical CD73 inhibitor AMPCP (25 nmol, in PBS), or JMS0414 (61 nmol, in HEPES), or HEPES buffer respectively. After incubation, slides were washed three times with PBS and Aqua bidest, mounted on a slide holder for the image acquisition, and covered with protection and scintillation foils. Digital autoradiography measurement of each slide was performed for 60 minutes (Micro Imager, Biospace, France). Acquired data were corrected for radioactive decay in reference to the start of the acquisition as well as the start of the incubation.

[3] = tested on: MDA‐MB‐231 tumor; assay: PET imaging in MDA-MB-231 breast cancer xenograft model; format: in vivo, NSG mice; details: MDA‐MB‐231 model
Procedure: Given the specificity of [^18F]1 and [^18F]2 and the promising in vivo biodistribution profile of [^18F]1, we established a small‐animal human breast tumor xenograft model in NSG mice subcutaneously implanted with MDA‐MB‐231 cells. […] For blocking studies, PSB‐12651 (15, Figure 6) or unlabeled 1 were used.
FIGURE 6 PET imaging data in an MDA‐MB‐231 tumor mouse model. (A). PET images, CT scans, and merged images of [^18F]2 in the MDA‐MB‐231 tumor mouse model 90 min after tracer injection. White arrows mark the tumor positions. (B). Quantitative PET analysis of [^18F]2 uptake: activity concentration of [^18F]2 in muscle and tumor tissues 90 min after tracer injection (left) and respective tumor‐to‐muscle ratio (right, n = 5 tumors). (C). PET‐CT images of [^18F]1 and [^18F]FDG in the MDA‐MB‐231 tumor mouse model, 260 min ([^18F]1), or 75 min ([^18F]FDG) after injection. […] White arrows mark the positions of tumors. (D). Quantitative PET analysis of [^18F]1 uptake: activity concentration of [^18F]1 and [^18F]FDG in muscle and tumor tissues (left) and tumor‐to‐muscle ratios (right) after 260 min. [^18F]1: n = 18 tumors, [^18F]1 plus unlabeled 1 block: n = 8 tumors, [^18F]1 plus compound 15 block: n = 6 tumors, [^18F]FDG: n = 18 tumors E. Ex vivo analysis of [^18F]1 uptake as measured by gamma counter: activity concentrations of [^18F]1 in muscle and tumor tissues after 260 min without and with blocking (left) and tumor‐to‐muscle ratios (right). [^18F]1: n = 6 tumors, [^18F]1 plus unlabeled 1 block: n = 6 tumors, [^18F]1 plus compound 15 block: n = 5 tumors.^# relative to the respective muscle, *relative to [^18F]1 without blocker, relative to the unblocked tumor; *<0.05; **<0.01, ***<0.001,^#<0.05; ^## <0.01, ^###<0.001, <0.05; <0.01, <0.001, ns: non‐significant, unpaired t‐test.
MDA-MB-231 cells were cultivated in DMEM/GlutaMAX, supplemented with 10 % fetal calf serum, 100 U/mL penicillin, and 100 µg/mL streptomycin and L-glutamine to a final concentration of 8 mmol/L. AsPC-1 cells were cultivated in RPMI, supplemented with 10 % fetal calf serum, 100 U/mL penicillin, and 100 µg/mL streptomycin and L-glutamine to a final concentration of 8 mmol/L. 5 x 10^6 MDA-MB-231 or 1x 10^6 AsPC-1 cells were injected subcutaneously into the shoulder region of 7 to 12 weeks old NSG (NOD.Cg-Prkdc^scid Il2rg^tm1Wjl/SzJ) mice (Charles River Laboratories). Two tumors were inoculated per animal, and growth was followed by digital caliper measurements (volume = ½ (length * width^2)).
Adult C57bl/6 (biodistribution study, 19.8±1.3 g) or tumor-bearing NSG mice (22.2±2.2 g) were anesthetized by isoflurane/O2, and one lateral tail vein was cannulated using a 27 G needle. A respective radiotracer (~ 390 kBq/g body weight) was injected as a bolus via the tail vein, and subsequent PET scanning was performed. A ~1000-fold excess of unlabeled JMS0414 (14 for [^18F]MRS-4648 ([^18F]2)), unlabeled PSB-19427 (1), or PSB-12651 (15) (for [^18F]PSB-19427 ([^18F]1)) was injected into a subgroup of tumor-bearing mice 10 min before radiotracer injection in the blocking studies. PET imaging studies were carried out using a submillimeter high resolution (0.7 mm full width at half-maximum) small animal scanner (32 module quadHIDAC, Oxford Positron Systems Ltd., Oxford, UK) with a uniform spatial resolution (<1 mm) over a large cylindrical field (165 mm diameter, 280 mm axial length). […]

SMILES: Nc1ncnc2c1ncn2[C@@H]1O[C@H](COP(=O)(O)CP(=O)(O)O)[C@@H](O)[C@H]1O [AMPCP, reference compound]
- residence time [1]: 8.8 min
- Effect of co-incubated blocker on tissue-associated radioactivity [2]: markedly reduced

- Effect of co-incubated blocker on tissue-associated radioactivity [2]: markedly reduced
SMILES: Cn1c(=O)n([C@@H]2O[C@H](COP(=O)(O)CP(=O)(O)O)[C@@H](O)[C@H]2O)cc/c1=N/OCc1ccccc1 [JMS04-14, reference compound]

- residence time ([1]; estimated from kinetic rate index, [3H]PSB-17230, 25 °C, read-out: Residence time): 31 min
SMILES: O=P(O)(O)CP(=O)(O)OC[C@H]1O[C@@H](n2cnc3c(NCc4ccccc4)nc(Cl)nc32)[C@H](O)[C@@H]1O [PSB-12651, reference compound]
- Effect of blocker pre-treatment on tumor-to-muscle ratio of [18F]1 ([3]; ~1000-fold excess injected 10 min before tracer): markedly reduced

- Tumor-to-muscle ratio ([3]; [18F]FDG PET, 75 min after injection): 2.04 ± 1.0 and 2.04
SMILES: O=C[C@H]([18F])[C@@H](O)[C@H](O)[C@H](O)CO [[^18F]FDG, 2‐deoxy‐2‐[^18F]fluoro‐D‐glucose, reference compound]
